From publication PMC8322070, “A novel orally active HDAC6 inhibitor T-518 shows a therapeutic potential for Alzheimer’s disease and tauopathy in mice” (Scientific Reports, 2021)

What was measured:
[1] = molecular target: T1, human HDAC7 (Homo sapiens, UniProt Q8WUI4); assay: HDAC enzyme assay (HDAC-Glo class IIa), HDAC7; assay type: biochemical; conditions: concentrations up to 10 μM
T1 construct: purchased SignalChem Pharmaceutical Inc
T1 sequence (Q8WUI4 1-952): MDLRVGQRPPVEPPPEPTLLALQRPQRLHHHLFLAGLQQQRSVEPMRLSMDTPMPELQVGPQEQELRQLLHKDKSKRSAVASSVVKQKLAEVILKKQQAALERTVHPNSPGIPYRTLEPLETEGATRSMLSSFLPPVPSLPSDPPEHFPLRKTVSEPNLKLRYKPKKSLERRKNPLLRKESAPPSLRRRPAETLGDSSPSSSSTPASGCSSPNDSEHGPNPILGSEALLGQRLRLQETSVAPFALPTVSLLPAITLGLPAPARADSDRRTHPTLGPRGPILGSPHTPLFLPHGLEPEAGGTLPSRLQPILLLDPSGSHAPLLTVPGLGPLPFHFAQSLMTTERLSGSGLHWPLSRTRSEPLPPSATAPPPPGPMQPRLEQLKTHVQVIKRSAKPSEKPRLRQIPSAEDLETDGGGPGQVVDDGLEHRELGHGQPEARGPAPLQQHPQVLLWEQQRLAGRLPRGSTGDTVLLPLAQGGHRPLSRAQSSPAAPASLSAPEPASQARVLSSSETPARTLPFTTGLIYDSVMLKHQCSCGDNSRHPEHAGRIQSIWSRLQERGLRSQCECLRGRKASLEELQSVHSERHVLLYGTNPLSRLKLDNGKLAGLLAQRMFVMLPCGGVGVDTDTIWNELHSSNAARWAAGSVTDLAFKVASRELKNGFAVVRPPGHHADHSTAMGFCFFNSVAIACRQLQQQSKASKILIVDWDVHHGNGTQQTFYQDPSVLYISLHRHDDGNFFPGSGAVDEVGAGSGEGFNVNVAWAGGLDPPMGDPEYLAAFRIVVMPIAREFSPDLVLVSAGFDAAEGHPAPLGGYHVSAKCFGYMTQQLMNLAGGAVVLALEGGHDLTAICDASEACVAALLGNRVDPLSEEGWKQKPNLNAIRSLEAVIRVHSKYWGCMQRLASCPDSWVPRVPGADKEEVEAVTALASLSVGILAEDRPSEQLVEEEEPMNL
Protocol: (§1) Recombinant HDAC6, HDAC7, HDAC1 were obtained from SignalChem Pharmaceutical Inc. (Richmond, BC, Canada), and recombinant human HDAC4 was prepared at Takeda pharmaceutical company. One μL of T-518 diluted with DMSO was added to 75 μL of assay buffer (24 mM Tris–HCl (pH 7.5), 135 mM NaCl, 0.35 mM KCl, 1 mM MgCl2, 0.01% Tween 20, 0.6 mM GSH) in 384 well plates. Two μL of diluted compounds were added to 384 well plates and 2 μL of recombinant HDAC enzymes was added and then centrifuged at 1000 rpm for 10 s. The final concentrations of each HDAC enzyme were as follows, human HDAC1, 170 pM; human HDAC6, […]; human HDAC4, 68 pM; human HDAC7, 13 pM. After incubation for 60 min at room temperature, 4 μL of HDAC-Glo reagent [HDAC-Glo I/II (Promega) for HDAC6 and HDAC1, HDAC-Glo class IIa (Promega) for HDAC4 and HDAC7] was added to start the reaction. After incubation for 20 min at room temperature, the luminescence was measured by Envision plate reader (PerkinElmer, Waltham, MA, USA). For experiments under the condition of 0 min preincubation, 4 μL of HDAC-Glo reagent was added at first to the 384 well plates including diluted compounds. […] After centrifugation at 1000 rpm for 10 s. and then incubation for 20 min at room temperature, the luminescence was measured by Envision. […] The inhibitory activity of T-518 was expressed as the value of IC50. […]

[2] = molecular target: T2, human HDAC4 (Homo sapiens, UniProt P56524); assay: HDAC enzyme assay (HDAC-Glo class IIa), HDAC4; assay type: biochemical; conditions: concentrations up to 10 μM
T2 construct: made in house
T2 sequence (P56524 whole entry): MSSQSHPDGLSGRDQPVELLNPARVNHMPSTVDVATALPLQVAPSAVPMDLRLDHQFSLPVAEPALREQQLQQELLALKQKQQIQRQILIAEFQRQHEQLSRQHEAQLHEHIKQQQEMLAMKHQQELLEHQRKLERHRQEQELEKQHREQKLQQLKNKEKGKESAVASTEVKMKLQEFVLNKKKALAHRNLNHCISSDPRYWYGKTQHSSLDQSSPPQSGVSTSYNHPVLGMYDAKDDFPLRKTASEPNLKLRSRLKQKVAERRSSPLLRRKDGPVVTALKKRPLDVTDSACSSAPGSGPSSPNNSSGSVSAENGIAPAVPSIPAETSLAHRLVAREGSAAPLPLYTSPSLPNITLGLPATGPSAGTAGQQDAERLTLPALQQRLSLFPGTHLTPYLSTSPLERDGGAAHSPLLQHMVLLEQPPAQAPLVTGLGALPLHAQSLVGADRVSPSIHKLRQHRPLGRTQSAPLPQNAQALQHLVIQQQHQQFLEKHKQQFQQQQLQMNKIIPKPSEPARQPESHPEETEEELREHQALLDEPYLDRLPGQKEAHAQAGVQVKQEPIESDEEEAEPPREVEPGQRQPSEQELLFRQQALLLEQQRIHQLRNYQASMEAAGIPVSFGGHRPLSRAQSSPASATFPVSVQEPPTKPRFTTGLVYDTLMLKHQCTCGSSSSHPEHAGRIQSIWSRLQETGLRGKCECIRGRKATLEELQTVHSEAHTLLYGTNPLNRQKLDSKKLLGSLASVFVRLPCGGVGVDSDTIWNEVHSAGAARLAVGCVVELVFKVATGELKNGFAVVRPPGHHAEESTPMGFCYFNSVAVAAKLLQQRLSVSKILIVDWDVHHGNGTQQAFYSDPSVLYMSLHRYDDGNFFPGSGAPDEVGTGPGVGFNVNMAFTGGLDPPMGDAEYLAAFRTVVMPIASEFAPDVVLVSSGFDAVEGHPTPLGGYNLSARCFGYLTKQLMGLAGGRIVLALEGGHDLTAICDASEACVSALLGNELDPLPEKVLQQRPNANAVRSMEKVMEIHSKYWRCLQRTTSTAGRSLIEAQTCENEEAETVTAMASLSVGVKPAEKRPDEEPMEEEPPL
Protocol: as §1

[3] = test system: P301S tau Tg mice; assay: Septohippocampal retrograde axonal transport of Fluoro-Gold in tauopathy model; assay type: in vivo, mouse; conditions: 3 mg/kg daily for 2 weeks, 5-month-old P301S tau Tg mice
Protocol: T-518, ACY-738, Ricolinostat, and Tubastatin A were synthesized in Takeda. For in vitro cellular experiments, the compounds were solubilized with DMSO and diluted in the culture medium at the indicated concentrations. For in vivo experiments, the compound was reconstituted in 0.5% methylcellulose and administered orally at the indicated doses. After administration, mouse hippocampus was isolated and homogenized in RIPA extraction buffer (50 mM Tris–HCl, 150 mM NaCl, 1% NP-40, 0.5% sodium deoxycholate, and 0.1% SDS, pH 8.0) supplemented with protease and phosphatase inhibitor cocktail (Thermo Fischer, Waltham, MA, USA). The homogenate was centrifuged at 10,000g for 15 min and the supernatant was taken as the RIPA-soluble fraction.
The integrity of retrograde axonal transport was evaluated by detecting the accumulation of Fluoro-Gold (Fluorochrome, Denver, CO) in the medial septal nucleus after injection into hippocampus (0.5 μL of 5% at AP − 2.3 mm, ML − 2.0 mm, and DV − 2.0 mm relative to bregma). Three days after injection, mice were anesthetized and transcardially perfused with PBS (pH 7.4) followed by 4% paraformaldehyde. […] Fluorescent cells in the medial septum region were counted with Image-Pro Plus software (version 4.5.0.24) (Media Cybernetics, Rockville, MD; https://www.mediacy.com/imageproplus).

O=C1c2cc(-c3nnc(C(F)F)o3)cnc2CN1[C@@H]1CCCC[C@H]1NC(=O)C(F)(F)C(F)(F)F [T-518, N-[(1R,2R)-2-{3-[5-(difluoromethyl)-1,3,4-oxadiazol-2-yl]-5-oxo-5H,6H,7H-pyrrolo[3,4-b]pyridin-6-yl}cyclohexyl]-2,2,3,3,3-pentafluoropropanamide]
inhibition of human HDAC7 enzyme activity [1]: did not obviously inhibit | inhibition of human HDAC4 enzyme activity [2]: did not obviously inhibit | retrograde axonal transport of Fluoro-Gold from hippocampus to medial septal nucleus [3]: significantly improved axonal transport
